Measurements: patent publication US20030191144A1, “Compounds, compositions and methods for modulating beta-amyloid production” (Active Pass Pharmaceuticals, Inc., priority 2001, published 2003)

Experiments:
Type in all cases: cell-based
[1] = tested on: Aβ42 from human neuroblastoma cells (hDAT; SK-N-MC); test: Aβ42 ELISA, human neuroblastoma cells transiently transfected with APPsw; conditions: 200 μM, 24 hours, p<0.001, n=11
Method: (§1) Human neuroblastoma cells (hDAT; SK-N-MC stably overexpression human dopamine transporter) were routinely maintained in DMEM supplemented with sodium pyruvate (1 mM) and 10% fetal bovine serum. […] Subsequently, 48 hours post-transfection the cells were rinsed with PBS and treated with vehicle (0.1% DMSO) or 100-200 μM pirinixic acid in serum free/phenol free DMEM for 24 hours. After the pharmacological treatment, the exposure media was collected and supplemented with 10% sample treatment buffer (40 mM sodium phosphate (pH 7.4), 40 mM triethanolamine, 0.1% Triton X-100, 200 mM NaCl, 2 mM EGTA, 0.1% Sodium azide), and assayed for either Aβ40 or AP42 by a calorimetric ELISA as per the manufacturer's protocol (Biosource International Inc, California). The cells were lysed in 0.1% Triton X-100 in PBS supplemented with 5 μM Propridium Iodide (Molecular probes, Eugene, Oreg.) and incubated at 37° C. for 30 minutes prior to measuring fluorescence. Secreted Aβ40 and Aβ42 levels were standardized against propridium iodide fluorescence as a measure of total cell number. Data are expressed as a percent of control and represent the mean±SD with n=11 and statistical significance determined by ANOVA with a Tukey's post hoc test at ***p<0.001.

[2] = tested on: Aβ40 from human neuroblastoma cells (hDAT; SK-N-MC); test: Aβ40 ELISA, human neuroblastoma cells transiently transfected with APPsw; conditions: 200 μM, 24 hours
Method: as §1

[3] = tested on: Aβ42 from primary murine cortical neurons; test: Aβ42 sandwich ELISA, primary murine cortical neurons infected with APP695; conditions: primary murine cortical neurons infected with APP695, 5 μM, p<0.01, n=6
Method: The cDNA coding for human APP695 is cloned in the Smal site of pSFV-1 as described previously (Simons et al., J. Neurosci. 16:899-908, 1996; Tienari et al., Embo. J. 15:5218-29, 1996). PSFV-1/huAPP695 constructs are linearized,with SpeI and run-off transcription using SP6 polymerase is performed to produce mRNA. The transcribed mix of APP and pSFV-helper are cotransfected into BHK cells by electroporation to yield recombinant SFV (Olkkonen et al., J. Neurosci. Res. 35:445-51, 1993). BHK cells are grown in DMEM/F12 supplemented with 5% fetal calf serum, 2 mM L-glutamine, 100 U/ml penicillin, and […] streptomycin. Twenty-four hours after transfection, the culture supernatant containing infective recombinant SFV is collected. Aliquots are snap-frozen in liquid nitrogen and stored at −70° C. until use. […]
The levels of the longer Aβ42 peptide are quantified in both the conditioned media and cell extracts using a sandwich ELISA test (De Strooper et al., Nature 391:387-90, 1998; Vanderstichele et al., Amyloid. 7:245-58, 2000). […] Finally HRP substrate is added and the colorimetric reaction is quantitated spectrophotometrically using a Victor 2 (Wallac) equipped with a 450 nm filter. […] The Aβ42 concentrations in the samples are finally calculated based on the Aβ42 standards nonlinear regression equation and using Mathematica 4.1 software package (Wolfram Research, Champaign, Ill.). […]

[4] = tested on: Aβtotal from primary murine cortical neurons; test: Aβtotal immunoprecipitation, primary murine cortical neurons infected with APP695; conditions: primary murine cortical neurons infected with APP695, below 250 μM (5-50 μM)
Method: The cDNA coding for human APP695 is cloned in the Smal site of pSFV-1 as described previously (Simons et al., J. Neurosci. 16:899-908, 1996; Tienari et al., Embo. J. 15:5218-29, 1996). PSFV-1/huAPP695 constructs are linearized,with SpeI and run-off transcription using SP6 polymerase is performed to produce mRNA. The transcribed mix of APP and pSFV-helper are cotransfected into BHK cells by electroporation to yield recombinant SFV (Olkkonen et al., J. Neurosci. Res. 35:445-51, 1993). BHK cells are grown in DMEM/F12 supplemented with 5% fetal calf serum, 2 mM L-glutamine, 100 U/ml penicillin, and […] streptomycin. Twenty-four hours after transfection, the culture supernatant containing infective recombinant SFV is collected. Aliquots are snap-frozen in liquid nitrogen and stored at −70° C. until use.
All experiments are conducted on murine primary cortical neurons derived from E14 embryos according to established procedures (Annaert et al., J. Cell Biol. 147:277-294, 1999; Cupers et al., J. Cell Biol. 154:731-40, 2001; De Strooper et al., Nature 391:387-90, 1998). […]
Data are expressed as a percent of control and represent the mean±SD with n=6 and statistical significance determined by ANOVA with a Tukey's post hoc test at **p<0.01, ***p<0.001.

Cc1cccc(Nc2cc(Cl)nc(SCC(=O)O)n2)c1C [pirinixic acid]
decrease in Aβ42 [1]: 40% | effect on Aβ40 [2]: without altering Aβ40 | decrease in Aβ42 [3]: 20% | effect on Aβtotal [4]: no significant effect
